Experiments:
[1] = dissolution of suspensions of 1, 2 and 3 g in 200 cm3 of water, stirred at room temperature; assay type: physicochemical; details: insoluble filtered, dried and weighed after at most 10 minutes
Excerpt: Les résultats suivants sont obtenus :

[2] = flowability (coulabilité) test on the Hosokawa combined powder tester; assay type: physicochemical; details: for Angle de spatule / Angle de talus / Densité (non tassée): combiné Hosokawa
Excerpt: Les propriétés de coulabilité et de dissolution du produit ainsi obtenu sont comparées à celle de paracétamol cristallisé paracétamol broyé (refus à 425 µ < 0,5 %, refus à 250 µ < 5 %) paracétamol broyé super fin (refus à 50 µ < 10 %, refus à 80 µ < 1 %) a) coulabilité : les produits sont testés sur le combiné Hosokawa commercialisé par Hosokawa Europe Ltd, St John's Estate, Tylers Green High Wycombe, Buckinghamshire, England.

[3] = Concentration 5 g/l (1 g in 200 cm3 water)
[4] = Concentration 10 g/l (2 g in 200 cm3 water)
[5] = Concentration 15 g/l (3 g in 200 cm3 water)

| Pourcentage dissous [1, 3] | Pourcentage dissous [1, 4] | Pourcentage dissous [1, 5] | Angle de spatule [2] [°] | Angle de talus [2] [°] | Densité (non tassée) [2] [kg/m3] | coulabilité ([2]; result in words, compared with the crystallised and ground products) | SMILES |
| --- | --- | --- | --- | --- | --- | --- | --- |
| 100 | 100 | > 98 | 41 | 37 | 400 | aussi bonne que le produit cristallisé | CC(=O)Nc1ccc(O)cc1 [Aggloméré, paracétamol] |
| 100 | 100 | > 98 | 76 | 60 | 150 |  | CC(=O)Nc1ccc(O)cc1 [Broyé super fin, paracétamol] |
| 100 | 100 | > 98 | 74 | 56 | 280 |  | CC(=O)Nc1ccc(O)cc1 [Broyé, paracétamol] |
| > 95 | 85 | 83 | 39 | 39 | 700 |  | CC(=O)Nc1ccc(O)cc1 [Cristallisé, paracétamol] |

Source: patent publication EP0219377A1, “Process for the preparation of spherical paracetamol agglomerates and products obtained thereby” (RHONE-POULENC SANTE, priority 1985, dated 1987)
